Results taken from patent US9493537B2, “Compounds with reduced ring size for use in diagnosing and treating melanoma, including metastatic melanoma and methods related to same” (STC.UNM, priority 2009, dated 2016).
Where two headings read alike, the source gives them in different places.

Key:
[1] = test system: B16/F1 melanoma; conditions: literature, cited from earlier work
[2] = Metabolites in urine and melanoma by RP-HPLC; type: in vivo, C57 mice; conditions: urine, 2 h post-injection
Experimental: The mouse used for the imaging study (2 h post-injection) described above was euthanized and the urine was collected for identifying the metabolites. The urinary sample was centrifuged at 16,000 g for 5 min prior to the HPLC analysis. The radioactive metabolite in the urine was analyzed by injecting aliquots of urine into the HPLC. A 20-minute gradient of 18-28% acetonitrile/20 mM HCl was used for the urine analysis.
Both melanoma and urine were collected from the mouse used for SPECT/CT imaging to analyze the metabolites of ^111In-DOTA-GGNle-CycMSHhex in melanoma and urine. The tumor was homogenized by a VWR homogenizer for 5 mins. Equal volume of ethanol was added into the tumor sample. The tumor sample was vortexed and then centrifuged at 16,000 g for 5 mins. The supernatant was transferred into a glass test tube and purged with N2 gas for 20 mins to remove the ethanol. Aliquots of the supernatant were injected into HPLC. The urinary sample was directly centrifuged at 16,000 g for 5 mins prior to the HPLC analysis. Thereafter, aliquots of the urine were injected into HPLC. The HPLC gradient described above was used for the analyses of metabolites.

[3] = In vitro serum stability in mouse serum; type: in vitro ADME; conditions: 37° C., 24 h
Experimental: After the incubation, 10 μL of 0.5% EDTA aqueous solution was added into the reaction vial to scavenge potential unbound ^111In^3+ ions. The radiolabeled peptide was purified to single species by Waters RP-HPLC (Milford, Mass.) on a Grace Vydac C-18 reverse phase analytical column (Deerfield, Ill.) using a 20-minute gradient of 18-28% acetonitrile in 20 mM HCl aqueous solution with a flow rate of 1.0 mL/min. Purified peptide sample was purged with N2 gas for 20 minutes to remove the acetonitrile. The pH of final solution was adjusted to 7.4 with 0.1 N NaOH and sterile normal saline for animal studies.
Briefly, 50 μL of ^111InCl3 (37-74 MBq in 0.05 M HCl aqueous solution), 10 μL of 1 mg/mL peptide aqueous solution and 400 μL of 0.5 M NH4OAc (pH 4.5) were added into a reaction vial and incubated at 75° C. for 45 mins. After the incubation, 10 μL of 0.5% EDTA (ethylenediaminetetraacetic acid) aqueous solution was added into the reaction vial to scavenge potential unbound ^111In^3+ ions. The radiolabeled complexes were purified to single species by Waters RP-HPLC (Milford, Mass.) on a Grace Vydac C-18 reverse phase analytical column (Deerfield, Ill.) using the following gradient at a 1 mL/min flowrate. The mobile phase consisted of solvent A (20 mM HCl aqueous solution) and solvent B (100% CH3CN). The gradient was initiated and kept at 82:18 A/B for 3 mins followed by a linear gradient of 82:18 A/B to 72:28 A/B over 20 mins. Then, the gradient was changed from 72:28 A/B to 10:90 A/B over 3 mins followed by an additional 5 mins at 10:90 A/B. Thereafter, the gradient was changed from 10:90 AB to 82:18 AB over 3 mins. Each purified peptide sample was purged with N2 gas for 20 mins to remove the acetonitrile. The pH of the final solution was adjusted to 7.4 with 0.1 N NaOH and sterile saline for animal studies. In vitro serum stability of ^111In-DOTA-GGNle-CycMSHhex and ^111In-DOTA-GENle-CycMSHhex were determined by incubation in mouse serum at 37° C. for 24 h and monitored for degradation by RP-HPLC.

[4] = test system: B16/F1 melanoma; experiment: Biodistribution in B16/F1 melanoma-bearing C57 mice; type: in vivo
Experimental: All the animal studies were conducted in compliance with Institutional Animal Care and Use Committee approval. The mice were housed five animals per cage in sterile micro-isolator cages in a temperature- and humidity-controlled room with a 12-h light/12-h dark schedule. […] C57 mice were subcutaneously inoculated on the right flank with 1×10^6 B16/F1 cells. The weight of tumors reached approximately 0.2 g 10 days post cell inoculation. […] Groups of 5 mice were sacrificed at 0.5, 2, 4 and 24 h post-injection, and tumors and organs of interest were harvested, weighed and counted. Blood values were taken as 6.5% of the whole-body weight. […] The mice were sacrificed at 2 h post-injection. The tumor and organs of interest were harvested, weighed and counted.
All animal studies were conducted in compliance with Institutional Animal Care and Use Committee approval. The pharmacokinetics of ^111In-DOTA-GGNle-CycMSHhex and ^111In-DOTA-GENle-CycMSHhex were determined in B16/F1 melanoma-bearing C57 female mice (Harlan, Indianapolis, Ind.). The C57 mice were subcutaneously inoculated with 1×10^6 B16/F1 cells on the right flank for each mouse to generate B16/F1 melanomas. Ten days post inoculation, the tumor weights reached approximately 0.2 g. Each melanoma-bearing mouse was injected with 0.037 MBq of ^111In-DOTA-GGNle-CycMSHhex or ^111In-DOTA-GENle-CycMSHhex via the tail vein. Groups of 5 mice were sacrificed at 0.5, 2, 4 and 24 h post-injection, and tumors and organs of interest were harvested, weighed and counted. Blood values were taken as 6.5% of the whole-body weight. The specificities of the tumor uptake of ^111In-DOTA-GGNle-CycMSHhex and ^111In-DOTA-GENle-CycMSHhex were determined by co-injecting 10 μg (6.07 nmol) of unlabeled NDP-MSH which is a linear α-MSH peptide analogue with picomolar MC1 receptor binding affinity.

## CCCC[C@H](NC(=O)CN1CCN(CC(=O)O)CCN(CC(=O)O)CCN(CC(=O)O)CC1)C(=O)N[C@H]1CC(=O)NCCCC[C@@H](C(N)=O)NC(=O)[C@H](Cc2c[nH]c3ccccc23)NC(=O)[C@H](CCCNC(=N)N)NC(=O)[C@@H](Cc2ccccc2)NC(=O)[C@H](Cc2c[nH]cn2)NC1=O [^111In-DOTA-Nle-CycMSHhex, metal not drawn]
[1]; 0.5 h post-injection
  tumor (melanoma) uptake: 24.94±4.58 % ID/g
[1]; 2 h post-injection
  tumor (melanoma) uptake: 19.39±1.65 % ID/g
[1]; 4 h post-injection
  tumor (melanoma) uptake: 17.01±2.54 % ID/g
[2]
  urinary metabolites by HPLC: remained intact
[3]
  serum stability by RP-HPLC: stable
[4]; 10 μg NDP-MSH, 2 h after dose administration
  tumor uptake with NDP-MSH co-injection as percent of tumor uptake without: 4.2%
[4]; 0.5 h post-injection
  Kidneys uptake: 16.20±4.32 % ID/g
  Tumor uptake: 24.94±4.58 % ID/g
[4]; 2 h post-injection
  Tumor uptake: 19.39±2.72 % ID/g
  reduction of kidney uptake by L-lysine co-injection: 30%
  renal uptake as percent of that of ^111In-DOTA-GlyGlu-CycMSH: 72.8%
  tumor uptake, times that of ^111In-DOTA-GlyGlu-CycMSH: 1.86 times
[4]; 4 h post-injection
  Tumor uptake: 17.01±2.54 % ID/g
  liver uptake as percent of that of ^99mTc(CO)3-pz-βAla-Nle-cyclo[Asp-His-D-Phe-Arg-Trp-Lys]-NH2: 7.5%
  renal uptake as percent of that of ^99mTc(CO)3-pz-βAla-Nle-cyclo[Asp-His-D-Phe-Arg-Trp-Lys]-NH2: 31.1%
  renal uptake as percent of that of ^111In-DOTA-GlyGlu-CycMSH: 82.4%
  tumor uptake, times that of ^99mTc(CO)3-pz-βAla-Nle-cyclo[Asp-His-D-Phe-Arg-Trp-Lys]-NH2: 1.5 times
[4]; 24 h post-injection
  Kidneys uptake: 9.31±0.91 % ID/g
  Tumor uptake: 10.53±1.11 % ID/g
  tumor activity at 2 h remaining in tumors at 24 h: 54.3%
